Article PMC10962542, “Inhibition of Aurora‐A/N‐Myc Protein–Protein Interaction Using Peptidomimetics: Understanding the Role of Peptide Cyclization” (Chembiochem, 2023)
Where two headings read alike, the source gives them in different places. *1 amine or outer side, *2 acyl side, *3 side chain or, on linkers, in order; H or OH if unused. Where a SMILES comes first, the peptide text is derived from it. Bridges are numbered along the chain shown (N, C = ends). Maleimide(3,4-diyl) = O=C1NC(=O)C([*:2])=C1[*:1]

Legend:
[1] = circular dichroism (CD) spectroscopy; assay type: physicochemical; details: 150 mM NaCl, 5 mM MgCl2, pH 7.5, 5 °C, n=2, free‐thiol (red) samples with 5 mol equivalents TCEP; for MRE222 (mean residue ellipticity at 222 nm): 25 mM Tris, mean ± SD, SD; for % Helicity (estimated): from MRE222 by equation 7, 25 mM Tris
Method: Circular dichroism (CD): All samples were prepared in Tris buffer (25 mM Tris, 150 mM NaCl, 5 mM MgCl2, pH 7.5) with the exception of free sulfhydryl peptides, to which Tris(2‐carboxyethyl)phosphine (TCEP; 5 mol eq. relative to the peptide) was added. CD spectra were recorded using an APP Chirascan CD spectropolarimeter and 1 mm pathlength quartz cuvettes. Sample concentrations were typically 30–120 μM, as determined by UV−V absorption based on a tryptophan extinction coefficient of 5600 M^−1 cm^−1 and, for mal‐constrained variants, a maleimide coefficient of 1700 M^−1 cm^−1.[16, 32] […] Spectra were recorded in duplicate at 5 °C, over wavelengths ranging from 290 to 180 nm, with data collected every 1 nm (1 nm s^−1). A background spectrum for CD buffer alone was also recorded and background ellipticity values were subtracted from raw sample ellipticity values (θ) when calculating mean residue ellipticities (MREs) using Equation 6: (6) MRE=(θλ-θ0)xMw/nxlxc
Where [θ]λ is the observed ellipticity at a given wavelength λ in mdeg, [θ]0 is the ellipticity observed for the buffer, Mw =molar weight of the peptide in g mol^−1, n=number of residues; c=sample concentration (mg mL^−1); l=pathlength of the cuvette in mm. Estimates of peptide % helicity were made using Equation 7, [33] (7) %helicity=(MRE222-MREcoil)x100/-425001-3/n
where MRE222 is the MRE value at 222 nm, MREcoil=640‐45T (with T in °C)=415 deg cm^2 dmol^−1 res^−1 at 5 °C, and n is the number of backbone amide bonds including the N‐terminal acetyl.

[2] = biological target: T1, N‐Myc/Aurora‐A interaction (Aurora‐A122‐403‐C290A/C393A) (Homo sapiens, UniProt O14965, C290A/C393A); assay: competition fluorescence anisotropy (FA) assay against fluorescein labelled N‐Myc61‐89; assay type: binding; note: equilibrated 2 h at room temperature
T1 construct: Aurora‐A 122‐403‐C290A/C393A protein was produced as described previously; made in house
T1 sequence (O14965 122-403 C290A/C393A): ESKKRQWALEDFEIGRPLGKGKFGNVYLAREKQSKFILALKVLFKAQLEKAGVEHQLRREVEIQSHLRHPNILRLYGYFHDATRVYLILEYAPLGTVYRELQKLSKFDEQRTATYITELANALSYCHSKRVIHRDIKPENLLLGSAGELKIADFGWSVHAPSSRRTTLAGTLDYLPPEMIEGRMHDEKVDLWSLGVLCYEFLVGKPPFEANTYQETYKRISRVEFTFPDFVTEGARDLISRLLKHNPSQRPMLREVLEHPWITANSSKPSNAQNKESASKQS
Method: Fluorescence anisotropy (FA) assays: All assays were performed using 384‐well plates (Greiner Bio‐one, UK). […] All samples were prepared in 25 mM Tris, 150 mM NaCl, 5 mM MgCl2, pH 7.5, and tested in triplicate using an EnVisionTM 2103 MultiLabel plate reader (Perkin Elmer; Waltham, MA, USA). The parameters were set as follows: Excitation wavelength=480 nm (30 nm bandwidth) and emission wavelength=535 nm (30 nm bandwidth). Measured data were processed and analysed as previously described.[31] Specifically, the perpendicular intensity (P) and parallel intensity (S) were subtracted by the control values and used for calculations of intensity and anisotropy using the following Equations 1, 2, 3, 4, and 5: (1) I=2PG+S (2) r=S-PG (3) Lb=r-rmin/λrmax-r+r-rmin (4) [drawing 1] (5) y=rmax+rmin-rmax/1+(x/x0)^p
For competition FA assays, the average anisotropy and the average standard deviation of the values derived from equation (2) were calculated and fit to a sigmoidal logistic model (equation (5)) using Origin 2021. […] Results are reported as IC50±SD, with data points representing the mean of three replicates and error bars indicating the corresponding SD. Where applicable, ΔΔG was determined as follows: ΔΔG=−RT ln (ΔIC50).

| SMILES | MRE222 (mean residue ellipticity at 222 nm) [1] | % Helicity (estimated) [1] | IC50 ([2]; SD) | IC50 [2] |
| --- | --- | --- | --- | --- |
| CSCC[C@H](NC(=O)[C@H](CCC(=O)O)NC(=O)[C@H](CS)NC(=O)[C@@H](NC(=O)[C@H](Cc1c[nH]c2ccccc12)NC(=O)[C@H](CO)NC(=O)[C@@H]1CCCN1C(=O)[C@@H]1CCCN1C(=O)[C@H](CCC(=O)O)NC(=O)[C@H](CO)NC(=O)[C@H](CO)NC(=O)[C@H](Cc1c[nH]cn1)NC(=O)[C@H](CCC(=O)O)NC(=O)[C@H](C)NC(=O)[C@H](Cc1ccccc1)NC(=O)CNC(=O)[C@H](CCCNC(=N)N)NC(=O)[C@H](CO)NC(=O)[C@@H]1CCCN1C(=O)[C@H](CO)NC(=O)[C@H](CC(C)C)NC(C)=O)C(C)C)C(=O)N[C@@H](CC(C)C)C(=O)N[C@@H](CS)C(=O)N[C@@H](CCC(=O)O)C(=O)N[C@@H](CC(N)=O)C(=O)N[C@@H](CCC(=O)O)C(=O)N[C@@H](CC(C)C)C(=O)N[C@@H](Cc1c[nH]c2ccccc12)C(=O)NCC(N)=O [N-Myc 61-89 T79C/L83C red] (Ac-LSPSRGFAEHSSEPPSWVCEMLCENELWG-NH2) | -1907 ± 23 deg cm^−1 dmol^−1 res^−1 | 6 ± 1% | 152 ± 15 µM |  |
| CSCC[C@@H]1NC(=O)[C@H](CCC(=O)O)NC(=O)[C@H]([C@@H](C)O)NC(=O)[C@@H](NC(=O)[C@H](Cc2c[nH]c3ccccc23)NC(=O)[C@H](CO)NC(=O)[C@@H]2CCCN2C(=O)[C@@H]2CCCN2C(=O)[C@H](CCC(=O)O)NC(=O)[C@H](CO)NC(=O)[C@H](CO)NC(=O)[C@H](Cc2c[nH]cn2)NC(=O)[C@H](CCC(=O)O)NC(=O)[C@H](C)NC(=O)[C@H](Cc2ccccc2)NC(=O)CNC(=O)[C@H](CCCNC(=N)N)NC(=O)[C@H](CO)NC(=O)[C@@H]2CCCN2C(=O)[C@H](CO)NC(=O)[C@H](CC(C)C)NC(C)=O)CSSC[C@@H](C(=O)N[C@@H](CC(C)C)C(=O)N[C@@H](CCC(=O)O)C(=O)N[C@@H](CC(N)=O)C(=O)N[C@@H](CCC(=O)O)C(=O)N[C@@H](CC(C)C)C(=O)N[C@@H](Cc2c[nH]c3ccccc23)C(=O)NCC(N)=O)NC1=O [N-Myc 61-89 V78C/L82C ox] (Ac-LSPSRGFAEHSSEPPSWCTEMCLENELWG-NH2; disulfide 18-22) | -2823 ± 48 deg cm^−1 dmol^−1 res^−1 | 8 ± 1% |  | ≥ 500 µM |
| CSCC[C@H](NC(=O)[C@@H]1CSSC[C@H](NC(=O)[C@@H]2CCCN2C(=O)[C@@H]2CCCN2C(=O)[C@H](CCC(=O)O)NC(=O)[C@H](CO)NC(=O)[C@H](CO)NC(=O)[C@H](Cc2c[nH]cn2)NC(=O)[C@H](CCC(=O)O)NC(=O)[C@H](C)NC(=O)[C@H](Cc2ccccc2)NC(=O)CNC(=O)[C@H](CCCNC(=N)N)NC(=O)[C@H](CO)NC(=O)[C@@H]2CCCN2C(=O)[C@H](CO)NC(=O)[C@H](CC(C)C)NC(C)=O)C(=O)N[C@@H](Cc2c[nH]c3ccccc23)C(=O)N[C@@H](C(C)C)C(=O)N[C@@H]([C@@H](C)O)C(=O)N1)C(=O)N[C@@H](CC(C)C)C(=O)N[C@@H](CC(C)C)C(=O)N[C@@H](CCC(=O)O)C(=O)N[C@@H](CC(N)=O)C(=O)N[C@@H](CCC(=O)O)C(=O)N[C@@H](CC(C)C)C(=O)N[C@@H](Cc1c[nH]c2ccccc12)C(=O)NCC(N)=O [N-Myc 61-89 S76C/E80 ox] (Ac-LSPSRGFAEHSSEPPCWVTCMLLENELWG-NH2; disulfide 16-20) | -2141 ± 88 deg cm^−1 dmol^−1 res^−1 | 7 ± 1% | 84 ± 9 µM |  |
| CSCC[C@@H]1NC(=O)[C@H](CCC(=O)O)NC(=O)[C@H]([C@@H](C)O)NC(=O)[C@@H](NC(=O)[C@H](Cc2c[nH]c3ccccc23)NC(=O)[C@H](CO)NC(=O)[C@@H]2CCCN2C(=O)[C@@H]2CCCN2C(=O)[C@H](CCC(=O)O)NC(=O)[C@H](CO)NC(=O)[C@H](CO)NC(=O)[C@H](Cc2c[nH]cn2)NC(=O)[C@H](CCC(=O)O)NC(=O)[C@H](C)NC(=O)[C@H](Cc2ccccc2)NC(=O)CNC(=O)[C@H](CCCNC(=N)N)NC(=O)[C@H](CO)NC(=O)[C@@H]2CCCN2C(=O)[C@H](CO)NC(=O)[C@H](CC(C)C)NC(C)=O)CSC2=C(SC[C@@H](C(=O)N[C@@H](CC(C)C)C(=O)N[C@@H](CCC(=O)O)C(=O)N[C@@H](CC(N)=O)C(=O)N[C@@H](CCC(=O)O)C(=O)N[C@@H](CC(C)C)C(=O)N[C@@H](Cc3c[nH]c4ccccc34)C(=O)NCC(N)=O)NC1=O)C(=O)NC2=O [N-Myc 61-89 V78C/L82C mal] (Ac-LSPSRGFAEHSSEPPSWCTEMCLENELWG-NH2; linker 18-22 via Maleimide(3,4-diyl)) | -1767 ± 72 deg cm^−1 dmol^−1 res^−1 | 6 ± 1% |  | ≥ 500 µM |
| CSCC[C@H](NC(=O)[C@H](CCC(=O)O)NC(=O)[C@@H](NC(=O)[C@@H](NC(=O)[C@H](Cc1c[nH]c2ccccc12)NC(=O)[C@H](CO)NC(=O)[C@@H]1CCCN1C(=O)[C@@H]1CCCN1C(=O)[C@H](CCC(=O)O)NC(=O)[C@H](CO)NC(=O)[C@H](CO)NC(=O)[C@H](Cc1c[nH]cn1)NC(=O)[C@H](CCC(=O)O)NC(=O)[C@H](C)NC(=O)[C@H](Cc1ccccc1)NC(=O)CNC(=O)[C@H](CCCNC(=N)N)NC(=O)[C@H](CO)NC(=O)[C@@H]1CCCN1C(=O)[C@H](CO)NC(=O)[C@H](CC(C)C)NC(C)=O)C(C)C)[C@@H](C)O)C(=O)N[C@H]1CSSC[C@@H](C(=O)N[C@@H](CC(C)C)C(=O)N[C@@H](Cc2c[nH]c3ccccc23)C(=O)NCC(N)=O)NC(=O)[C@H](CC(N)=O)NC(=O)[C@H](CCC(=O)O)NC(=O)[C@H](CC(C)C)NC1=O [N-Myc 61-89 L82C/E86C ox] (Ac-LSPSRGFAEHSSEPPSWVTEMCLENCLWG-NH2; disulfide 22-26) | -2630 ± 119 deg cm^−1 dmol^−1 res^−1 | 8 ± 1% | 219 ± 23 µM |  |
| CSCC[C@H](NC(=O)[C@H](CCC(=O)O)NC(=O)[C@@H](NC(=O)[C@@H](NC(=O)[C@H](Cc1c[nH]c2ccccc12)NC(=O)[C@H](CO)NC(=O)[C@@H]1CCCN1C(=O)[C@@H]1CCCN1C(=O)[C@H](CCC(=O)O)NC(=O)[C@H](CO)NC(=O)[C@H](CO)NC(=O)[C@H](Cc1c[nH]cn1)NC(=O)[C@H](CCC(=O)O)NC(=O)[C@H](C)NC(=O)[C@H](Cc1ccccc1)NC(=O)CNC(=O)[C@H](CCCNC(=N)N)NC(=O)[C@H](CO)NC(=O)[C@@H]1CCCN1C(=O)[C@H](CO)NC(=O)[C@H](CC(C)C)NC(C)=O)C(C)C)[C@@H](C)O)C(=O)N[C@@H](CS)C(=O)N[C@@H](CC(C)C)C(=O)N[C@@H](CCC(=O)O)C(=O)N[C@@H](CC(N)=O)C(=O)N[C@@H](CS)C(=O)N[C@@H](CC(C)C)C(=O)N[C@@H](Cc1c[nH]c2ccccc12)C(=O)NCC(N)=O [N-Myc 61-89L82C/E86C red] (Ac-LSPSRGFAEHSSEPPSWVTEMCLENCLWG-NH2) | -2348 ± 49 deg cm^−1 dmol^−1 res^−1 | 7 ± 1% | 120 ± 14 µM |  |
